Source: PubChem BioAssay AID743485 (Broad Institute, 2014)

tested on: Mycobacterium tuberculosis replicating, CFU count, imaging; assay: M. tuberculosis CFU reduction, CFU imaging, dry powder, dose response (AID 743485)

Row | Structure (SMILES) | AC90 [µM]
1 | Cn1c(NC(=O)c2ccccc2)nc2c3cnccc3ccc21 | < 8
2 | Cn1c(NC(=O)c2ccccc2)nc2c3nccnc3ccc21 | < 16
3 | Cn1c(NC(=O)c2ccccc2)nc2c3ccncc3ccc21 | < 8
4 | Cn1c(NC(=O)c2ccccc2)nc2c3ncccc3ccc21 | < 8
